The values below come from patent US6949255B2, “Inhibitory chemical formulation with preservative system” (priority 2000, dated 2005).

For one data set, the system named is VSV. It counts as cell-based, vesicular stomatitis virus.
Data set [1] deals with vesicular stomatitis virus (VSV). It counts as cell-based.
A further data set relates to HIV. To be noted: among prostitutes; Kreiss et al., JAMA 1992; cited from earlier work.

With `COC(=O)c1ccc(O)cc1` [Methylparaben], in the data set with L-929 cells (mouse), the “concentrations at which toxicity activity was absent” value is under 0.2% and the “killing of L-929 cells (toxicity titer)” value was “greater than 300 fold”. In the data set on VSV, the “inhibition of VSV” value was “approximately 30 fold”.

Regarding `CCCOC(=O)c1ccc(O)cc1` [Proplyparaben, propylparaben], in the data set on L-929 cells (mouse), the L-929 toxicity titer result was “approximately 15 fold” and the “concentrations at which toxicity activity was absent” value is on record as under 0.004%. For the same compound, in the data set on VSV, the “concentrations at which inhibitory activity was absent” value was under 0.004% and the “inhibition of VSV” value is reported as “approximately 55 fold”.

For `CC(O)CO` (centres unmarked) [Propylene G, propylene glycol], in the data set with L-929 cells, the “killing of L-929 cells” value is “almost no inhibition or killing at all”. In addition, the “inhibition of VSV” value in the data set on VSV is given as “almost no inhibition”.

Turning to `OCC(O)CO` [glycerol], the “concentrations at which toxicity activity was absent” value with L-929 cells (mouse) was “below 8%”. In the data set on VSV, the “concentrations at which inhibitory activity was absent” value is listed as “below 8%” and the “inhibition of VSV” value is given as “greater than 10 fold”.

As for Nonoxynol-9 [Nonoxynol-9®], the “inhibition of multiplication of VSV” value in data set [1] was “almost identical degree of inhibition”. Further, the “risk of HIV infection with use” value with HIV was “increased risk of HIV infection”.
